Where a SMILES comes first, the peptide text is derived from it. A value given as a limit tells only on which side of the number the result lay.

One assay has as its target T1, TRPV1 (Homo sapiens, UniProt Q8NER1).
T1 construct: expressed in transfected cells; host or cells: HEK293T
As to the kind of experiment: Electrophysiological recording, ligand activation of TRPV1. The class given is cell-based. The protocol: (§1) HEK293T cells were cultured in Dulbecco's modified Eagle culture medium under a 37° C., 5% CO2 environment, 10% fetal bovine serum, penicillin (100 U/mL), and streptomycin ([…]) was needed to add into the culture medium. Transient transfection was conducted by using Lipo 2000 (Invitrogen) transfection kit and following the instruction manual.
(§2) Electrophysiological experiment recordings were performed on the cells within 24˜48 h of transient transfections. Specifically, single channel electrophysiological recordings were performed within 8 h after transfection.
(§3) Measurement of the cell currents was respectively performed in the whole-cell recording mode, inside-out recording mode or outside-out recording mode with a HEKA EPC10 amplifier. In the whole cell electrophysiological recordings, glass microelectrodes made of borosilicate material were fire-polished to a original electrode resistance of about 3-6 MΩ. Serial resistance was compensated by 60%. The whole cell electrophysiological recordings were performed at ±80 mV. For single channel electrophysiological recordings, glass microelectrodes were fire-polished to a higher resistance of 6-8 MΩ2. Current signal was sampled at 10 kHz and filtered at 2.9 kHz. Membrane potential of the cell membrane would be clamped at +80 mV. All electrophysiological recordings were performed at room temperature (22° C.) (the maximum variation is 1° C.). […]

The target in another assay is T2, TRPV3 (Homo sapiens, UniProt Q8NET8).
T2 construct: expressed in transfected cells; host or cells: HEK293T
T2 sequence (Q8NET8 1-790): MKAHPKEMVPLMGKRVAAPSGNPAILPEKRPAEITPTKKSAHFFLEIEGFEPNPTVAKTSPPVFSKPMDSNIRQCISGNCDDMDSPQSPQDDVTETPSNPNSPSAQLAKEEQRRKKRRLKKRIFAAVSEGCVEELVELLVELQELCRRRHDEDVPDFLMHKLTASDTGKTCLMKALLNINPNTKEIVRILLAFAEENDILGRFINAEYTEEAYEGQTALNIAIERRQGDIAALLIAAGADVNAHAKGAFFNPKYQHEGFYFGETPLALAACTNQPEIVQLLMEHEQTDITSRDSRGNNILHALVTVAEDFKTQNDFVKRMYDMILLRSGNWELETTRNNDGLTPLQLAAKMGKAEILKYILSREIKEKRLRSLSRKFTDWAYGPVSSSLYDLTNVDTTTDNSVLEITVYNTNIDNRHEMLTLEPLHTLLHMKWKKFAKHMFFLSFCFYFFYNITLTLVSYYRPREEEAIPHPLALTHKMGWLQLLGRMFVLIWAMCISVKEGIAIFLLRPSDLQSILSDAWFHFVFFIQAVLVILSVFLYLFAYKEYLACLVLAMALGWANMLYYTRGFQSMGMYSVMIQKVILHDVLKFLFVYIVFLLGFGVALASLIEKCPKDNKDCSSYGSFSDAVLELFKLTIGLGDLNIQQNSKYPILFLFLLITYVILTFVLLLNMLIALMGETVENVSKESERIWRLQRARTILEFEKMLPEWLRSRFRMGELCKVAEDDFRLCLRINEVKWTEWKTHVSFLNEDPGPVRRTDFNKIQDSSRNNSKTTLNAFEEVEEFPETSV
As to the kind of experiment: Electrophysiological recording, ligand activation of TRPV3. The class given is cell-based. The protocol:
as §1, §2, §3

In assay [1] the test system is CCI-induced static allodynia. As to the kind of experiment: Chronic constriction injury (CCI) model of neuropathic pain: static allodynia. The conditions noted are these: CCI rats. It is filed as in vivo. The text has this:
Male Sprague Dawley rats (purchased from Shanghai SLAC Laboratory Animals, LLC, 7 weeks old at the beginning of the experiment, n=7-10 per treatment) were used. CCI status was formed according to the method of Bennett G J and Xie Y K (Pain 1988, 33:87-107). Rats were anesthetized by intraperitoneal injection of sodium pentobarbital. The left common sciatic nerve was made to be exposed in the middle of the thigh in a state deprived of adherent tissue, and 4-0 silk thread (Ethicon Inc.) was utilized around it and four passes were loosely ligated at intervals of approximately 1 mm. Sham surgery was performed in the same manner except for sciatic nerve ligation. CCI surgery was performed after 2-3 weeks as described in Field M J et al. (Pain 1999, 83:303-311) documented, static allodynia was evaluated by Von Frey Hairs (VFH). Before starting the experiment, the experimental animals were acclimatized to the grid bottom cage. […] Each VFH was pressed against the phasic paw for 6 seconds, or until a withdrawal response occurred. When one withdrawal response occurred, the experiment was repeated by pressing the VFH at a weaker pressure until no withdrawal response occurred. The minimum pressure required to induce a response was recorded as a withdrawal paw threshold (PWT). If the experimental animal responded below an innocuous 1.4 g VFH, it was determined to be in static allodynia. […]

T1 sequence (Q8NER1 whole entry, species assumed): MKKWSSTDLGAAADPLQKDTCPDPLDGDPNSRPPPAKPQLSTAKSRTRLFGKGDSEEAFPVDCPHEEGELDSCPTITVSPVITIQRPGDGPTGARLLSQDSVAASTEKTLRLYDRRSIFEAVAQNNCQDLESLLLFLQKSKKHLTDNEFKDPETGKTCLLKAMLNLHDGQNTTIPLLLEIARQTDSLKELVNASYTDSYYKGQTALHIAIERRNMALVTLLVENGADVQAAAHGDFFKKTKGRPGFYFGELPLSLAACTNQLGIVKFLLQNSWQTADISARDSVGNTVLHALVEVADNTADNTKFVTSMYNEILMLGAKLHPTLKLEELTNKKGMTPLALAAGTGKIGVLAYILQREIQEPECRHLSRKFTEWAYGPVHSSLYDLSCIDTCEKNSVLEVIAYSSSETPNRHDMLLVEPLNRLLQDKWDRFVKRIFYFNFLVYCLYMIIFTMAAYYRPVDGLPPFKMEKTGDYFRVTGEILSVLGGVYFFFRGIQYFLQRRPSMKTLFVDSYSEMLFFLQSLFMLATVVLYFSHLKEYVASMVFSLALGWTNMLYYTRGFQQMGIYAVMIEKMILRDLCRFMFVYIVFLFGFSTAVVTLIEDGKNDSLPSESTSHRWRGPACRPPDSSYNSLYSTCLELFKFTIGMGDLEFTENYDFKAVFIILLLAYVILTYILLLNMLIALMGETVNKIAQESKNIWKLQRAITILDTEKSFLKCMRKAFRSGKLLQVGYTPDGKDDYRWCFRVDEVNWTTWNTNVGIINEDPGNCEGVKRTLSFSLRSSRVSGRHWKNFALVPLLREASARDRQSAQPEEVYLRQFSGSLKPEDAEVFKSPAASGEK

For the molecule `C[C@@H]1NC(=O)[C@H](CCCNC(=N)N)NC(=O)[C@H](CC(=O)O)NC(=O)[C@H](CCCNC(=N)N)NC(=O)[C@H](CCCNC(=N)N)NC(=O)[C@@H](N)CSSC[C@@H](C(=O)O)NC(=O)[C@H](CCCNC(=N)N)NC(=O)[C@H](CCC(N)=O)NC(=O)[C@H](CCCNC(=N)N)NC(=O)[C@H](Cc2ccc(O)cc2)NC(=O)[C@H](Cc2c[nH]cn2)NC(=O)[C@H](CCCNC(=N)N)NC1=O` [DeC-1.2, CRRDRARHYRQRC] (HELM PEPTIDE1{C.R.R.D.R.A.R.H.Y.R.Q.R.C}$PEPTIDE1,PEPTIDE1,1:R3-13:R3$$$V2.0; N-terminus and C-terminus assumed), the IC50 against TRPV1 and against TRPV3 was above 100 µM each time. Further, the “inhibition of ligand activation of TRPV1” value against TRPV1 (DeC-1.2 5 μM) is reported as “failed to inhibit”. In addition, the “inhibition of ligand activation of TRPV3” value on TRPV3 (DeC-1.2 5 μM) is “failed to inhibit”. Also, in assay [1], the “activity against static allodynia (von Frey hairs)” value was “exhibited strong activity”.

Usually IC50 stands for the concentration that inhibits the measured activity by half. Low values mean greater potency in that assay, high ones weaker potency in that assay.
